Measured values: US6525001B1, “Substituted pyrimidine and pyridine herbicides” (Mid-American Commercialization Corporation, priority 1997, dated 2003)

Columns and labels:
Assay in all cases: Test B pre-/postemergence
Type in all cases: in vivo
Parameters in all cases: key: 0 is no effect; 10 is complete control
[1] = system: bedstraw (Galium aparine)
Method in brief: (§1)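 Response scores run from 0, meaning no effect, to 10, meaning complete control, assigned by eye relative to controls twelve to sixteen days after spraying. Treatment was both preemergence on planted seed and postemergence on plants at the 1- to 4-leaf stage.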

[2] = system: blackgrass (Alopecurus myosuroides)
Method in brief: as §1

[3] = system: broadleaf signalgrass (Brachiaria decumbens)
Method in brief: as §1

[4] = system: cocklebur (Xanthium strumarium)
Method in brief: as §1

corn (Zea mays) = system: corn (Zea mays)
Method in brief: as §1

[5] = system: crabgrass (Digitaria sanguinalis)
Method in brief: as §1

[6] = system: momingglory (Ipomoea hederacea)
Method in brief: as §1

[7] = system: pigweed (Amaranthus retroflexus)
Method in brief: as §1

rape (Brassica napus) = system: rape (Brassica napus)
Method in brief: as §1

soybean (Glycine max) = system: soybean (Glycine max)
Method in brief: as §1

[8] = system: sugar beet (Beta vulgaris)
Method in brief: as §1

[9] = system: velvetleaf (Abutilon theophrasti)
Method in brief: as §1

[10] = system: wheat (Triticum aestivum)
Method in brief: as §1

wild oat (Avena fatua) = system: wild oat (Avena fatua)
Method in brief: as §1

SMILES: Cc1cnc(-c2ccc(C(F)(F)F)cc2)nc1Cn1cnc(C(F)(F)F)c1 [Compound 10]
- Plant response rating, Bedstraw ([1]; Rate 62 g/ha, Postemergence): 8
- Bedstraw plant response rating ([1]; Rate 62 g/ha, Preemergence): 3
- Plant response rating, Bedstraw ([1]; Rate 125 g/ha, Postemergence): 9
- Bedstraw plant response rating ([1]; Rate 125 g/ha, Preemergence): 7
- Plant response rating, Bedstraw ([1]; Rate 250 g/ha, Postemergence): 10
- Plant response rating, Bedstraw ([1]; Rate 250 g/ha, Preemergence): 7
- Plant response rating, Bedstraw ([1]; Rate 500 g/ha, Postemergence): 10
- Plant response rating, Bedstraw ([1]; Rate 500 g/ha, Preemergence): 10
- Plant response rating, Blackgrass ([2]; Rate 62 g/ha, Postemergence): 1
- Blackgrass plant response rating ([2]; Rate 62 g/ha, Preemergence): 1
- Plant response rating, Blackgrass ([2]; Rate 125 g/ha, Postemergence): 1
- Blackgrass plant response rating ([2]; Rate 125 g/ha, Preemergence): 2
- Plant response rating, Blackgrass ([2]; Rate 250 g/ha, Postemergence): 3
- Plant response rating, Blackgrass ([2]; Rate 250 g/ha, Preemergence): 2
- Plant response rating, Blackgrass ([2]; Rate 500 g/ha, Postemergence): 3
- Plant response rating, Blackgrass ([2]; Rate 500 g/ha, Preemergence): 3
- Plant response rating, B. signalgrass ([3]; Rate 62 g/ha, Postemergence): 2
- B. signalgrass plant response rating ([3]; Rate 62 g/ha, Preemergence): 1
- Plant response rating, B. signalgrass ([3]; Rate 125 g/ha, Postemergence): 3
- B. signalgrass plant response rating ([3]; Rate 125 g/ha, Preemergence): 1
- Plant response rating, B. signalgrass ([3]; Rate 250 g/ha, Postemergence): 3
- Plant response rating, B. signalgrass ([3]; Rate 250 g/ha, Preemergence): 2
- Plant response rating, B. signalgrass ([3]; Rate 500 g/ha, Postemergence): 3
- Plant response rating, B. signalgrass ([3]; Rate 500 g/ha, Preemergence): 4
- Plant response rating, Cocklebur ([4]; Rate 62 g/ha, Postemergence): 6
- Plant response rating, Cocklebur ([4]; Rate 125 g/ha, Postemergence): 8
- Plant response rating, Cocklebur ([4]; Rate 250 g/ha, Postemergence): 9
- Plant response rating, Cocklebur ([4]; Rate 250 g/ha, Preemergence): 1
- Plant response rating, Cocklebur ([4]; Rate 500 g/ha, Postemergence): 9
- Plant response rating, Cocklebur ([4]; Rate 500 g/ha, Preemergence): 3
- Plant response rating, Corn (corn (Zea mays); Rate 62 g/ha, Postemergence): 2
- Corn plant response rating (corn (Zea mays); Rate 62 g/ha, Preemergence): 0
- Plant response rating, Corn (corn (Zea mays); Rate 125 g/ha, Postemergence): 2
- Corn plant response rating (corn (Zea mays); Rate 125 g/ha, Preemergence): 0
- Plant response rating, Corn (corn (Zea mays); Rate 250 g/ha, Postemergence): 3
- Plant response rating, Corn (corn (Zea mays); Rate 250 g/ha, Preemergence): 0
- Plant response rating, Corn (corn (Zea mays); Rate 500 g/ha, Postemergence): 3
- Plant response rating, Corn (corn (Zea mays); Rate 500 g/ha, Preemergence): 1
- Plant response rating, Crabgrass ([5]; Rate 62 g/ha, Postemergence): 2
- Crabgrass plant response rating ([5]; Rate 62 g/ha, Preemergence): 5
- Plant response rating, Crabgrass ([5]; Rate 125 g/ha, Postemergence): 2
- Crabgrass plant response rating ([5]; Rate 125 g/ha, Preemergence): 7
- Plant response rating, Crabgrass ([5]; Rate 250 g/ha, Postemergence): 4
- Plant response rating, Crabgrass ([5]; Rate 250 g/ha, Preemergence): 9
- Plant response rating, Crabgrass ([5]; Rate 500 g/ha, Postemergence): 6
- Plant response rating, Crabgrass ([5]; Rate 500 g/ha, Preemergence): 9
- Plant response rating, Morningglory ([6]; Rate 62 g/ha, Postemergence): 5
- Morningglory plant response rating ([6]; Rate 62 g/ha, Preemergence): 2
- Plant response rating, Morningglory ([6]; Rate 125 g/ha, Postemergence): 7
- Morningglory plant response rating ([6]; Rate 125 g/ha, Preemergence): 3
- Plant response rating, Morningglory ([6]; Rate 250 g/ha, Postemergence): 7
- Plant response rating, Morningglory ([6]; Rate 250 g/ha, Preemergence): 9
- Plant response rating, Morningglory ([6]; Rate 500 g/ha, Postemergence): 9
- Plant response rating, Morningglory ([6]; Rate 500 g/ha, Preemergence): 10
- Plant response rating, Redroot pigweed ([7]; Rate 62 g/ha, Postemergence): 9
- Redroot pigweed plant response rating ([7]; Rate 62 g/ha, Preemergence): 3
- Plant response rating, Redroot pigweed ([7]; Rate 125 g/ha, Postemergence): 9
- Redroot pigweed plant response rating ([7]; Rate 125 g/ha, Preemergence): 6
- Plant response rating, Redroot pigweed ([7]; Rate 250 g/ha, Postemergence): 9
- Plant response rating, Redroot pigweed ([7]; Rate 250 g/ha, Preemergence): 7
- Plant response rating, Redroot pigweed ([7]; Rate 500 g/ha, Postemergence): 9
- Plant response rating, Redroot pigweed ([7]; Rate 500 g/ha, Preemergence): 7
- Plant response rating, Rape (rape (Brassica napus); Rate 62 g/ha, Postemergence): 8
- Rape plant response rating (rape (Brassica napus); Rate 62 g/ha, Preemergence): 3
- Plant response rating, Rape (rape (Brassica napus); Rate 125 g/ha, Postemergence): 9
- Rape plant response rating (rape (Brassica napus); Rate 125 g/ha, Preemergence): 4
- Plant response rating, Rape (rape (Brassica napus); Rate 250 g/ha, Postemergence): 9
- Plant response rating, Rape (rape (Brassica napus); Rate 250 g/ha, Preemergence): 4
- Plant response rating, Rape (rape (Brassica napus); Rate 500 g/ha, Postemergence): 9
- Plant response rating, Rape (rape (Brassica napus); Rate 500 g/ha, Preemergence): 7
- Plant response rating, Soybean (soybean (Glycine max); Rate 62 g/ha, Postemergence): 6
- Soybean plant response rating (soybean (Glycine max); Rate 62 g/ha, Preemergence): 0
- Plant response rating, Soybean (soybean (Glycine max); Rate 125 g/ha, Postemergence): 6
- Soybean plant response rating (soybean (Glycine max); Rate 125 g/ha, Preemergence): 0
- Plant response rating, Soybean (soybean (Glycine max); Rate 250 g/ha, Postemergence): 8
- Plant response rating, Soybean (soybean (Glycine max); Rate 250 g/ha, Preemergence): 1
- Plant response rating, Soybean (soybean (Glycine max); Rate 500 g/ha, Postemergence): 8
- Plant response rating, Soybean (soybean (Glycine max); Rate 500 g/ha, Preemergence): 1
- Plant response rating, Sugarbeets ([8]; Rate 62 g/ha, Postemergence): 8
- Sugarbeets plant response rating ([8]; Rate 62 g/ha, Preemergence): 6
- Plant response rating, Sugarbeets ([8]; Rate 125 g/ha, Postemergence): 8
- Plant response rating, Sugarbeets ([8]; Rate 250 g/ha, Postemergence): 9
- Plant response rating, Sugarbeets ([8]; Rate 250 g/ha, Preemergence): 6
- Plant response rating, Sugarbeets ([8]; Rate 500 g/ha, Postemergence): 9
- Plant response rating, Sugarbeets ([8]; Rate 500 g/ha, Preemergence): 10
- Plant response rating, Velvetleaf ([9]; Rate 62 g/ha, Postemergence): 6
- Velvetleaf plant response rating ([9]; Rate 62 g/ha, Preemergence): 5
- Plant response rating, Velvetleaf ([9]; Rate 125 g/ha, Postemergence): 7
- Velvetleaf plant response rating ([9]; Rate 125 g/ha, Preemergence): 7
- Plant response rating, Velvetleaf ([9]; Rate 250 g/ha, Postemergence): 8
- Plant response rating, Velvetleaf ([9]; Rate 250 g/ha, Preemergence): 8
- Plant response rating, Velvetleaf ([9]; Rate 500 g/ha, Postemergence): 9
- Plant response rating, Velvetleaf ([9]; Rate 500 g/ha, Preemergence): 8
- Plant response rating, Wheat ([10]; Rate 62 g/ha, Postemergence): 2
- Wheat plant response rating ([10]; Rate 62 g/ha, Preemergence): 0
- Plant response rating, Wheat ([10]; Rate 125 g/ha, Postemergence): 3
- Wheat plant response rating ([10]; Rate 125 g/ha, Preemergence): 0
- Plant response rating, Wheat ([10]; Rate 250 g/ha, Postemergence): 3
- Plant response rating, Wheat ([10]; Rate 250 g/ha, Preemergence): 0
- Plant response rating, Wheat ([10]; Rate 500 g/ha, Postemergence): 3
- Plant response rating, Wheat ([10]; Rate 500 g/ha, Preemergence): 1
- Plant response rating, Wild oats (wild oat (Avena fatua); Rate 62 g/ha, Postemergence): 2
- Wild oats plant response rating (wild oat (Avena fatua); Rate 62 g/ha, Preemergence): 0
- Plant response rating, Wild oats (wild oat (Avena fatua); Rate 125 g/ha, Postemergence): 2
- Wild oats plant response rating (wild oat (Avena fatua); Rate 125 g/ha, Preemergence): 1
- Plant response rating, Wild oats (wild oat (Avena fatua); Rate 250 g/ha, Postemergence): 2
- Plant response rating, Wild oats (wild oat (Avena fatua); Rate 250 g/ha, Preemergence): 2
- Plant response rating, Wild oats (wild oat (Avena fatua); Rate 500 g/ha, Postemergence): 3
- Plant response rating, Wild oats (wild oat (Avena fatua); Rate 500 g/ha, Preemergence): 4
